IC50 data for one molecule are collected here from patent publication US7915291B2, “Hepatitis C virus inhibitors” (Bristol-Myers Squibb Company, priority 2002, dated 2011).

This assay addresses T1, HCV NS3/4A protease complex, H77C strain (Hepatitis C virus genotype 1a, UniProt P27958, C1454S).
T1 construct: recombinant HCV NS3/4A protease complex (amino acids 1027 to 1711); inferred from pET21b vector and Ni-NTA purification; made in house; host or cells: Escherichia coli BL21 (DE3), pET21b
The assay is described as follows: Recombinant HCV NS3/4A protease complex FRET peptide assay (H77C strain). It counts as biochemical, HCV genotype 1a. An excerpt: Recombinant HCV NS3/4A Protease Complex FRET Peptide Assay
The purpose of this in vitro assay was to measure the inhibition of HCV NS3 protease complexes, derived from the BMS, H77C or J416S strains, as described below, by compounds of the present invention. This assay provides an indication of how effective compounds of the present invention would be in inhibiting HCV proteolytic activity.
Serum from an HCV-infected patient was obtained from Dr. T. Wright, San Francisco Hospital. An engineered full-length cDNA (compliment deoxyribonucleic acid) template of the HCV genome (BMS strain) was constructed from DNA fragments obtained by reverse transcription-PCR(RT-PCR) of serum RNA (ribonucleic acid) and using primers selected on the basis of homology between other genotype 1a strains. From the determination of the entire genome sequence, a genotype 1a was assigned to the HCV isolate according to the classification of Simmonds et al. (See P Simmonds, Kans. Rose, S Graham, S W Chan, F McOmish, B C Dow, E A Follett, P L Yap and H Marsden, J. Clin. Microbiol., 31(6), 1493-1503 (1993)). […]

T1 sequence (P27958 1027-1657 C1454S): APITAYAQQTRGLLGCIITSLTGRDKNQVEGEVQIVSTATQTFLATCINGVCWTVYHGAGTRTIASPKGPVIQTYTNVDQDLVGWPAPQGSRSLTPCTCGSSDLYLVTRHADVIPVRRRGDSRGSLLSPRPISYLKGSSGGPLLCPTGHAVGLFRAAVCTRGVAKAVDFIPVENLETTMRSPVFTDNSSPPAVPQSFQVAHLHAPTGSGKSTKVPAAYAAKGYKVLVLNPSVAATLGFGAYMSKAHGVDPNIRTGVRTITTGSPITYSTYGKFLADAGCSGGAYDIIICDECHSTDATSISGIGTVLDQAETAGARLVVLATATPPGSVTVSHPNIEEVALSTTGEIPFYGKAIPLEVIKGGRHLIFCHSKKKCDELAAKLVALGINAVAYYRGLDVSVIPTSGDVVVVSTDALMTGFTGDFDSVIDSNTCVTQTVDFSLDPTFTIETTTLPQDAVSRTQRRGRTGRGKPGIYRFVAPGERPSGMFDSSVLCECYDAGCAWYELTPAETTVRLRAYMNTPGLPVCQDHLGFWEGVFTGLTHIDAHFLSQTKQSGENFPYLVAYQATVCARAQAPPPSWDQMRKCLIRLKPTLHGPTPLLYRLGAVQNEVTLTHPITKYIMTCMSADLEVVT
T1 sequence (P27958 1658-1714 partner, looked up, stated change not applied): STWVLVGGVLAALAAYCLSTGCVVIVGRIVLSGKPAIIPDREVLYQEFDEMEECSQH

As to `C=C[C@@H]1C[C@]1(NC(=O)[C@@H]1C[C@@H](Oc2nc(C3CC3)cc3ccccc23)CN1C(=O)[C@@H](NC(=O)OC(C)(C)C)C(C)(C)C)C(=O)NS(=O)(=O)C1CC1` [Compound 34], the IC50 was determined as 3 nM.
